Data published in ChEMBL document CHEMBL1268847, “Discovery of orally bioavailable imidazo[1,2-a]pyrazine-based Aurora kinase inhibitors” (Bioorg Med Chem Lett, 2010).

What was measured:
[1] = target: Tyrosine-protein kinase Lck (Homo sapiens, UniProt P06239); experiment: Inhibition of LCK
[2] = Inhibition of Aurora kinase assessed as reduction histone H3 Ser10 phosphorylation by cell based assay
[3] = target: Aurora kinase B (Homo sapiens, UniProt Q96GD4); experiment: Inhibition of Aurora B
[4] = target: T1, Aurora kinase A (Homo sapiens, UniProt O14965); experiment: Inhibition of Aurora A
T1 sequence (O14965 whole entry): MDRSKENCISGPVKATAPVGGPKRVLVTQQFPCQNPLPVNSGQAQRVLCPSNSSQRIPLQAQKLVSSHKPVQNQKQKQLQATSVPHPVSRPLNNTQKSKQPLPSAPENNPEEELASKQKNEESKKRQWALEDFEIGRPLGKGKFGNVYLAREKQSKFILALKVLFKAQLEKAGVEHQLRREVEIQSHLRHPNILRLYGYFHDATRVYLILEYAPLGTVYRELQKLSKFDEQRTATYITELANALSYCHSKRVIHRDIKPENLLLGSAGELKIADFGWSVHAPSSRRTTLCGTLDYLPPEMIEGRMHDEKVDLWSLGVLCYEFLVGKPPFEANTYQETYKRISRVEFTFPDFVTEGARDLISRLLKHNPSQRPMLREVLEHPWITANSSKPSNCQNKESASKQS

[5] = AUC (0-6 hrs) in rat at 10 mg/kg, po; type: ADME, organism-based; design: time < 6 hr, dose 10 mg/kg, route oral; settings: plasma

Aurora kinase B, sequence (Q96GD4 whole entry): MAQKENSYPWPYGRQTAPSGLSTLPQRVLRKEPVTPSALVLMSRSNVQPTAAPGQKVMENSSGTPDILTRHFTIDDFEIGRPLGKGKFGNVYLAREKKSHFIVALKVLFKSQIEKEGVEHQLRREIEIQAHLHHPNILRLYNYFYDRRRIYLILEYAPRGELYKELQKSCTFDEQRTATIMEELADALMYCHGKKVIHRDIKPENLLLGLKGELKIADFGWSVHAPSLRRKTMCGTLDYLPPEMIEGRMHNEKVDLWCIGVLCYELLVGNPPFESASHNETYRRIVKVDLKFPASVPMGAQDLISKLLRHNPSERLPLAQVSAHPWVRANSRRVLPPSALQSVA
Tyrosine-protein kinase Lck, sequence (P06239 whole entry): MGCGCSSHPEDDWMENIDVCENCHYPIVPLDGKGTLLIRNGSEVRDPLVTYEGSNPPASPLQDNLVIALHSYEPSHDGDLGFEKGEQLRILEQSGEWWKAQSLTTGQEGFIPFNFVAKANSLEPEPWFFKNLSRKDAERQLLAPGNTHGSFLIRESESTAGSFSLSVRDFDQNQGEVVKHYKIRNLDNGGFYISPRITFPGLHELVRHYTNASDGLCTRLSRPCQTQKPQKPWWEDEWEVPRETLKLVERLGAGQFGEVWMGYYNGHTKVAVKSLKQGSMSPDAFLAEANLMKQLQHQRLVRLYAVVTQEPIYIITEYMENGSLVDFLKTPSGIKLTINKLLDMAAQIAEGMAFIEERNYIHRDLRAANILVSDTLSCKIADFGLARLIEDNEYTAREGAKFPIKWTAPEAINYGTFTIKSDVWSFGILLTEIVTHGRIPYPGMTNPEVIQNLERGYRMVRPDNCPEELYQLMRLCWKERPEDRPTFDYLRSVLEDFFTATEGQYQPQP

| SMILES | IC50 [1] [nM] | EC50 [2] [nM] | IC50 [3] [nM] | IC50 [4] [nM] | AUC(0-t) at 6 h [5] [µM·h] |
| --- | --- | --- | --- | --- | --- |
| Cc1cc(Nc2nc(C)cn3c(-c4cn[nH]c4)cnc23)sn1 | 568 | 250 | ≤ 13 |  |  |
| Cc1cn2c(-c3cn[nH]c3)cnc2c(Nc2cc(CN3CCN(C)C(=O)C3)ns2)n1 |  | > 1000 | ≤ 13 | ≤ 4 |  |
| Cc1cn2c(-c3cn[nH]c3)cnc2c(Nc2cc(C3(N4C[C@@H](C)O[C@@H](C)C4)CC3)ns2)n1 |  | 733 | 50 | 45 | 0.3 |
| Cc1cn2c(-c3cn[nH]c3)cnc2c(Nc2cc(CN3CCOCC3(C)C)ns2)n1 | 384 | 117 | ≤ 13 | ≤ 4 | 3.3 |
| Cc1cn2c(-c3cn[nH]c3)cnc2c(Nc2cc(C(c3ccccn3)N3CCOCC3)ns2)n1 (racemic) |  | 104 | ≤ 13 | ≤ 4 | 0.4 |
| Cc1cn2c(-c3cn[nH]c3)cnc2c(Nc2cc(C(C)N3C[C@@H](C)O[C@@H](C)C3)ns2)n1 (mixture of isomers) |  | 55 | ≤ 13 | ≤ 4 | 8 |
| COCC(c1cc(Nc2nc(C)cn3c(-c4cn[nH]c4)cnc23)sn1)N1CCOCC1 (racemic) |  | 83 | ≤ 13 | ≤ 4 | 2.3 |
| Cc1cn2c(-c3cn[nH]c3)cnc2c(Nc2cc([C@H](C)N3C[C@@H](C)O[C@@H](C)C3)ns2)n1 |  | 217 |  |  | 1.1 |
| Cc1cn2c(-c3cn[nH]c3)cnc2c(Nc2cc(CN3CCOC[C@@H]3CO)ns2)n1 |  | > 1000 | ≤ 13 | ≤ 4 |  |
| Cc1cn2c(-c3cn[nH]c3)cnc2c(Nc2cc(CN3CCN(CCO)CC3)ns2)n1 |  | > 1000 | ≤ 13 | ≤ 4 |  |
| CSc1cn2c(-c3cn[nH]c3)cnc2c(Nc2cc(C)ns2)n1 |  | 600 | ≤ 13 |  |  |
| Cc1cn2c(-c3cn[nH]c3)cnc2c(Nc2cc(C(C)N3CCOCC3)ns2)n1 (racemic) |  | 74 | ≤ 13 | ≤ 4 | 1.1 |
| Cc1cn2c(-c3cn[nH]c3)cnc2c(Nc2cc(C(C)N3CCOC(C)(C)C3)ns2)n1 (racemic) |  | 71 | ≤ 13 | ≤ 4 | 1.3 |
| CCOC(=O)N1CCN(Cc2cc(Nc3nc(C)cn4c(-c5cn[nH]c5)cnc34)sn2)CC1 |  | 561 | ≤ 13 | ≤ 4 | 0.38 |
